The text below walks through data of US20040235882A1, “Amino-substituted imidazopyridines for the treatment of gastrointestial diseases” (priority 2001, published 2004).

The test concerns pentagastrin-stimulated acid secretion of the perfused rat stomach. Kind of test: Secretion-inhibiting action on the perfused rat stomach (pentagastrin-stimulated acid secretion, in vivo). Particulars: anesthetized female CD rat, pentagastrin 1 μg/kg i.v. infusion, dose 3 μmol/kg i.d. (intraduodenal). From the text:
Testing of the secretion-inhibiting action on the perfused rat stomach
In Table A which follows, the influence of the compounds according to the invention on the pentagastrin-stimulated acid secretion of the perfused rat stomach after intraduodenal administration in vivo is shown.
The abdomen of anesthetized rats (CD rat, female, 200-250 g; 1.5 g/kg i.m. urethane) was opened after tracheotomy by a median upper abdominal incision and a PVC catheter was fixed transorally in the esophagus and another via the pylorus such that the ends of the tube just projected into the gastric lumen. The catheter leading from the pylorus led outward into the right abdominal wall through a side opening.
After thorough rinsing (about 50-100 ml), warm (37° C.) physiological NaCl solution was continuously passed through the stomach (0.5 ml/min, pH 6.8-6.9; Braun-Unita I). The pH (pH meter 632, glass electrode EA 147; φ=5 mm, Metrohm) and, by titration with a freshly prepared 0.01 N NaOH solution to pH 7 (Dosimat 665 Metrohm), the secreted HCl were determined in the effluent in each case collected at an interval of 15 minutes.
The gastric secretion was stimulated by continuous infusion of […] (=1.65 ml/h) of i.v. pentagastrin (left femoral vein) about 30 min after the end of the operation (i.e. after determination of 2 preliminary fractions). […]

`Cc1nc2c3c(ccn2c1C)[C@@H](N1CCOCC1)[C@@H](O)CN3` [Example 9, (7R,8S,9R)-8-Hydroxy-2,3-dimethyl-7-(4-morphollno)-7,8,9,10-tetrahydroimidazo[1.2-h]-[1.7]naphthyridine]: the “Inhibition of acid secretion” value turned out to be 44%. With `Cc1nc2c3c(ccn2c1C)[C@@H](N(C)C)[C@@H](O)CN3` [Example 19, (7R,8S,9R)-8-Hydroxy-7-(dimethylamino)-2,3-dimethyl-7,8,9,10-tetrahydroimidazo[1.2-h]-[1.7]naphthyridine], the “Inhibition of acid secretion” value is 64%.
